According to article PMC6321136, “Combined In Vitro Studies and in Silico Target Fishing for the Evaluation of the Biological Activities of Diphylleia cymosa and Podophyllum hexandrum” (Molecules, 2018):
Like-named read-outs stand apart in the source and are kept apart here.

Columns and labels:
[1] = tested on: Agonist, glucocorticoid receptor (GR); set-up: method as in PubChem Bioassay AID 720719; conditions: ref PubChem Bioassay AID 720719; cited from earlier work
[2] = tested on: Cytotoxicity, Agonist, Histone H2A.x; set-up: method as in PubChem Bioassay AID 1224847; conditions: ref PubChem Bioassay AID 1224847; cited from earlier work
Anti-Inflammatory model [3] = tested on: Anti-Inflammatory model; set-up: method as in PubChem Bioassay AID 457; conditions: ref PubChem Bioassay AID 457; cited from earlier work
[4] = tested on: Antagonist, thyroid receptor (TR); set-up: method as in PubChem Bioassay AID 743065; conditions: ref PubChem Bioassay AID 743065; cited from earlier work
[5] = tested on: Cytotoxicity, Antagonist, androgen receptor (AR); set-up: method as in PubChem Bioassay AID 1259242; conditions: ref PubChem Bioassay AID 1259242; cited from earlier work
[6] = tested on: Antagonist, androgen receptor (AR); set-up: method as in PubChem Bioassay AID 743042; conditions: ref PubChem Bioassay AID 743042; cited from earlier work
[7] = target: T1, AChE from Electropardus electricous type VI-S (Electrophorus electricus, UniProt O42275); experiment: AChE inhibition microplate assay (Ellman); assay type: biochemical; conditions: 400 μg/mL; read-out: Inhibition of AChE Microplate (%I)
T1 construct: purchased Sigma-Aldrich, St. Louis, MO, USA type VI-S (catalogue number not given)
Procedure: AChE inhibition assay was performed on a 96-well microplate according to Ellman’s method with adaptations. Initially, the extracts were solubilized on MeOH, at 20 mg/mL, and diluted to 4 mg/mL using Tris/HCl buffer solution (50 mM, pH 8.0). A portion of 25 µL of the samples (4 mg/mL) were added to the wells of the microplate, as well as 50 μL of 0.1% BSA solution in Tris/HCl Buffe (pH 8.0), 125 μL of DTNB in Tris/HCl (3 mM) containing NaCl (10 mM) and MgCl2 (20 mM). Subsequently, 25 μL of the ATCI aqueous solution (15 mM) was added to all wells. Then, a background reading was performed at 405 nm using microplate reader (Multiskan Go, Thermo Scientific, Whaltham, MA, USA). The enzymatic reaction was initiated after the addition of 25 µL of AChE solution (AChE from Electropardus electricous type VI-S, 0.2 U/mL, Sigma-Aldrich, St. Louis, MO, USA) in Tris/HCl buffer (50 mM, pH 8.0) containing 0.1% BSA. The kinetic cycle was performed in a period of 25 min, with readings at 5 min intervals, at 405 nm. Physostigmine (Eserine, Sigma, St. Louis, MO, USA) was employed as the positive control. […] The assay was performed in triplicate and the % of inhibition (%I) was calculated according to the following equation: %I = [(a − b)/a] × 100, where a = ΔA/min of control; b = ΔA/min of test sample; ΔA = change in absorbance between time x and time zero. […]

[8] = tested on: Antagonist, retinoid-related orphan receptor gamma (ROR-gamma); set-up: method as in PubChem Bioassay AID 1159521; conditions: ref PubChem Bioassay AID 1159521; cited from earlier work
[9] = tested on: Cytotoxicity, Agonist, AP-1; set-up: method as in PubChem Bioassay AID 1159525; conditions: ref PubChem Bioassay AID 1159525; cited from earlier work
Anti-Inflammatory model [10] = tested on: Anti-Inflammatory model; set-up: method as in PubChem Bioassay AID 1267; conditions: ref PubChem Bioassay AID 1267; cited from earlier work
[11] = tested on: Antagonist, NFkB Signaling Pathway; set-up: method as in PubChem Bioassay AID 624479; conditions: ref PubChem Bioassay AID 624479; cited from earlier work
[12] = tested on: Cell Cycle Modulation (counterscreen); set-up: method as in PubChem Bioassay AID 1117349; conditions: ref PubChem Bioassay AID 1117349; cited from earlier work
[13] = tested on: Agonist, constitutive androstane receptor (CAR); set-up: method as in PubChem Bioassay AID 1224839; conditions: ref PubChem Bioassay AID 1224839; cited from earlier work
[14] = tested on: Agonist, glucocorticoid receptor (GR); set-up: method as in PubChem Bioassay AID 720691; conditions: ref PubChem Bioassay AID 720691; cited from earlier work
Anticancer, Colon Tumor = tested on: Anticancer, Colon Tumor; set-up: method as in PubChem Bioassay AID 771; conditions: ref PubChem Bioassay AID 771; cited from earlier work
[15] = tested on: Antagonist, androgen receptor (AR); set-up: method as in PubChem Bioassay AID 1259243; conditions: ref PubChem Bioassay AID 1259243; cited from earlier work
Anti-Inflammatory model [16] = tested on: Anti-Inflammatory model; set-up: method as in PubChem Bioassay AID 602277; conditions: ref PubChem Bioassay AID 602277; cited from earlier work
Anticancer, Leukemia = tested on: Anticancer, Leukemia; set-up: method as in PubChem Bioassay AID 328; conditions: ref PubChem Bioassay AID 328; cited from earlier work
[17] = tested on: Antagonist, peroxisome proliferator-activated receptor gamma (PPARg); set-up: method as in PubChem Bioassay AID 743191; conditions: ref PubChem Bioassay AID 743191; cited from earlier work

T1 sequence (O42275 24-633): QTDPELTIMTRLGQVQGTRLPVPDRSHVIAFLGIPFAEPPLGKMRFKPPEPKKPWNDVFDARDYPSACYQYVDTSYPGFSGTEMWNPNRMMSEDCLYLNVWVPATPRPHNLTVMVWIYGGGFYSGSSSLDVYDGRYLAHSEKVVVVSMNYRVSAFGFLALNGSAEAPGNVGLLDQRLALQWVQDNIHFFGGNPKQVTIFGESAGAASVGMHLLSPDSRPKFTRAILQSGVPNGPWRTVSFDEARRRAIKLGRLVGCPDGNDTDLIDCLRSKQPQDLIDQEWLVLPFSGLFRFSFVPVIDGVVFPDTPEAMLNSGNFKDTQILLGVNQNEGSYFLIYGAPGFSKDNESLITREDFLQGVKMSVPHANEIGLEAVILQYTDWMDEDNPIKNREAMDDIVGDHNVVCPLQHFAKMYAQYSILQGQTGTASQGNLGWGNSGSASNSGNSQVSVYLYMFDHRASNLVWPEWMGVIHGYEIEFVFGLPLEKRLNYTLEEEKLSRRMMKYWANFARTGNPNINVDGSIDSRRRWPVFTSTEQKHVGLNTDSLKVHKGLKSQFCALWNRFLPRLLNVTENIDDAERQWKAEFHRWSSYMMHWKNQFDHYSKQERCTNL

## COc1cc([C@@H]2c3cc4c(cc3[C@H](O)[C@H]3COC(=O)[C@H]23)OCO4)cc(OC)c1OC [Podophyllotoxin, podophyllotoxin]
[1]
  Exper. Activity: Inactive
[2]
  Exper. Activity: Inactive
Anti-Inflammatory model [3]
  Exper. Activity: Inactive
[4]
  Exper. Activity: Active
[5]
  Exper. Activity: Inactive
[6]
  Exper. Activity: Inactive
[7]
  inhibition at 400 µg/mL: 32.7 ± 5.38%
[8]
  Exper. Activity: Active
[9]
  Exper. Activity: Inactive
Anti-Inflammatory model [10]
  Exper. Activity: Inactive
[11]
  Exper. Activity: Inactive
[12]
  Exper. Activity: Active
[13]
  Exper. Activity: Inactive
[14]
  Exper. Activity: Inactive
Anticancer, Colon Tumor
  Exper. Activity: Inactive
[15]
  Exper. Activity: Inactive
Anti-Inflammatory model [16]
  Exper. Activity: Active
Anticancer, Leukemia
  Exper. Activity: Active
[17]
  Exper. Activity: Inactive
